From ChEMBL document CHEMBL3232931 (J Med Chem, 2014)

How the values were obtained:
[1] = molecular target: T1, Sentrin-specific protease 8 (Homo sapiens, UniProt Q96LD8); experiment: Inhibition of human DEN1 using Nedd8-EKL as substrate
T1 sequence (Q96LD8 whole entry): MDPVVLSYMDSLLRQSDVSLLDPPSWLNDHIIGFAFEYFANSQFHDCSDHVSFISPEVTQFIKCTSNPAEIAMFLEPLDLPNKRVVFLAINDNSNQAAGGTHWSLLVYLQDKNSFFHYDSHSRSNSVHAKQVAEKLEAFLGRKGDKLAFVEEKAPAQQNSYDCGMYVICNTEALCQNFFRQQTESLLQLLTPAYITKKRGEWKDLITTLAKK

[2] = molecular target: T2, Caspase-3 (Homo sapiens, UniProt P42574); experiment: Inhibition of human caspase-3 using fluorogenic peptide as substrate
T2 sequence (P42574 whole entry): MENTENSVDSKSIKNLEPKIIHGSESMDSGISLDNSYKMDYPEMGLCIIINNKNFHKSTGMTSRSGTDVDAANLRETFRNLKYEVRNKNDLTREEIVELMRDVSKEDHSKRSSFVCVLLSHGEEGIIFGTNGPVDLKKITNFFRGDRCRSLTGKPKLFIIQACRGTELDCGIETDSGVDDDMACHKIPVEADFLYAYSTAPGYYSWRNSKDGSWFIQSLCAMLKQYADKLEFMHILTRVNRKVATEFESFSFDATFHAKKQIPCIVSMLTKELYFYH

[3] = molecular target: T3, Caspase-3 (Homo sapiens) (UniProt P42574); experiment: Inhibition of human caspase-3 using fluorogenic peptide as substrate at 31 uM
T3 sequence (whole entry): T2 sequence (P42574 whole entry)

[4] = molecular target: T4, Ubiquitin carboxyl-terminal hydrolase 2 (Homo sapiens) (UniProt O75604); experiment: Inhibition of human USP2 using Ub-rhodamine 110 as substrate at 31 uM
T4 sequence (whole entry): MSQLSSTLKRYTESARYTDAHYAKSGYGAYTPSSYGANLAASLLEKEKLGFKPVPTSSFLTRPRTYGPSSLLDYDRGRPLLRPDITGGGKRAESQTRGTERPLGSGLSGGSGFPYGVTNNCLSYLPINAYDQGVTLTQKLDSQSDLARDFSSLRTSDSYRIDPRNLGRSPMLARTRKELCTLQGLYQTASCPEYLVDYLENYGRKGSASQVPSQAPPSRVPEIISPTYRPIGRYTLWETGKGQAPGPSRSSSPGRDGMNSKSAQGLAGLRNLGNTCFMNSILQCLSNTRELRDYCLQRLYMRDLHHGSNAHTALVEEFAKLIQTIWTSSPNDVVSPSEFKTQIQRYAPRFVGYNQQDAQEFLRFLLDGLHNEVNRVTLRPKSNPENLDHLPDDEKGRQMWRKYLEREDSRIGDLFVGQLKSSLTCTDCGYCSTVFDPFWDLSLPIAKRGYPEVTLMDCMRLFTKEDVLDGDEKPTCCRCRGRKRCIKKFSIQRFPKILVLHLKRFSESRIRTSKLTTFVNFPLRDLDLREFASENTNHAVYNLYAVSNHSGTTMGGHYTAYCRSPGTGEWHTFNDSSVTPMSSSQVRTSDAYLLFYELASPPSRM

[5] = molecular target: T5, Ubiquitin carboxyl-terminal hydrolase 8 (Homo sapiens) (UniProt P40818); experiment: Inhibition of human USP8 using Ub-rhodamine 110 as substrate at 31 uM
T5 sequence (whole entry): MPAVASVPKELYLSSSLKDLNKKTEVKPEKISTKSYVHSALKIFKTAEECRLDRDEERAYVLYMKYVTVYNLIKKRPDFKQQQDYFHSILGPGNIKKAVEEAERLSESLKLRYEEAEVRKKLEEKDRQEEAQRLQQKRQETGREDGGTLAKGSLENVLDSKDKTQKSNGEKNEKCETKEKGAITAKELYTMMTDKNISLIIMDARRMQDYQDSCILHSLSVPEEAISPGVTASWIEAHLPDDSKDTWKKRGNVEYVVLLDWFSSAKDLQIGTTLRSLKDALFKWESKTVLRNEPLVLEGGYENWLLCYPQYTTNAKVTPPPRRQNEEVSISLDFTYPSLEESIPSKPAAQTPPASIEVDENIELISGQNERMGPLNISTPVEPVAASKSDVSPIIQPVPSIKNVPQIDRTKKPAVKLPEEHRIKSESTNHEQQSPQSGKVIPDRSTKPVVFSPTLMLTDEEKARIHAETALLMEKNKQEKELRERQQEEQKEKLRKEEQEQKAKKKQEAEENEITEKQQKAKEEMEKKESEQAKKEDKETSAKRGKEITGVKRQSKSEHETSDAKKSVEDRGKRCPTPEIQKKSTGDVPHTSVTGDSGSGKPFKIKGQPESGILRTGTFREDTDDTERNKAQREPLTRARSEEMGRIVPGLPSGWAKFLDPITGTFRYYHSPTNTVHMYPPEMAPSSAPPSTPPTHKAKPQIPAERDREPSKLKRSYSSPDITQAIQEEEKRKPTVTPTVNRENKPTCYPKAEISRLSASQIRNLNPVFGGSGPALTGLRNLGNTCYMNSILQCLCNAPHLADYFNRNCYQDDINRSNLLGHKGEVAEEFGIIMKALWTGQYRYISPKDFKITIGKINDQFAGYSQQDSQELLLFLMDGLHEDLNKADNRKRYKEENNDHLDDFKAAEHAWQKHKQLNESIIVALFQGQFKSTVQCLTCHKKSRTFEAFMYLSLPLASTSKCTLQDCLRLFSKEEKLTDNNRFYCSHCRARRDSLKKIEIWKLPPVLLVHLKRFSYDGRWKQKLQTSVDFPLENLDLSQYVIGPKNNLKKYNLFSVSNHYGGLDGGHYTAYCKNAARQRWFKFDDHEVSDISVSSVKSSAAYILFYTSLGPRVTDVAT

[6] = (§1) Inhibition of SARS coronavirus papain-like protease (amino acids 1541 to 1855) expressed in Escherichia coli BL21 (DE3) cells assessed as decrease in AMC release using Z-RLRGG-AMC as substrate by multimode plate reader analysis; set-up: species or system Severe acute respiratory syndrome-related coronavirus
[7] = tested on: BL21-DE3; experiment: as §1; conditions: Severe acute respiratory syndrome-related coronavirus
[8] = Therapeutic index, ratio of CC50 for african green monkey Vero E6 cells to EC50 for SARS coronavirus infected in african green monkey Vero E6 cells; assay type: cell-based; conditions: read-out: Ratio CC50/EC50

| SMILES | IC50 [1] | IC50 [2] | inhibition [3] [%] | inhibition [4] [%] | inhibition [5] [%] | IC50 [6] [nM] | Imax [7] [%] | selectivity ratio [8] |
| --- | --- | --- | --- | --- | --- | --- | --- | --- |
| C[C@H](c1cccc2ccccc12)N1CCC(C(=O)NCc2ccc3c(c2)OCO3)CC1 | Not Active | Not Active | < 10 | < 10 | 10 | 670 | 99 | – |
| C[C@H](c1cccc2ccccc12)N1CCC(C(=O)NCc2ccc(F)cc2)CC1 | Not Active | Not Active | < 10 | < 10 | 10 | 490 | – | > 8.6 |
| C[C@H](c1cccc2ccccc12)N1CCC(C(=O)NCc2cccc(F)c2)CC1 | Not Active | Not Active | < 10 | < 10 | 10 | 150 | 100 | > 18.5 |
| CC(=O)Nc1cccc(CNC(=O)C2CCN([C@H](C)c3cccc4ccccc34)CC2)c1 | Not Active | Not Active | < 10 | 10 | 10 | 390 | 100 | > 12 |
